Assay results taken from ChEMBL document CHEMBL1201861, “Genomics of Drug Sensitity in Cancer screening data, Wellcome Trust Sanger Institute”.

Key:
Assay in all cases: cells
Format in all cases: functional, cell-based, Homo sapiens
IST-MEL1 = conditions: Homo sapiens, IST-MEL1;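 also: growth inhibition of the cell line, read out with a cell viability assay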
Description: SANGER: Inhibition of human IST-MEL1 cell growth in a cell viability assay.

Mo = conditions: Homo sapiens, Mo
Description: SANGER: Inhibition of human Mo-T cell growth in a cell viability assay.

IST-MES1 = conditions: Homo sapiens, IST-MES1;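 also: growth inhibition of IST-MES1 cells, measured with a cell viability assay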
Description: SANGER: Inhibition of human IST-MES1 cell growth in a cell viability assay.

MHH-NB-11 = conditions: Homo sapiens, MHH-NB-11;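 also: growth inhibition of human MHH-NB-11 cells, read out by a cell viability assay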
Description: SANGER: Inhibition of human MHH-NB-11 cell growth in a cell viability assay.

SW872 = conditions: Homo sapiens, SW872;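 also: growth inhibition of SW872 cells, read out by a viability assay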
Description: SANGER: Inhibition of human SW872 cell growth in a cell viability assay.

GB-1 = conditions: Homo sapiens, GB-1;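 also: growth of GB-1 cells judged by a viability assay, IC50 marks the concentration inhibiting growth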
Description: SANGER: Inhibition of human GB-1 cell growth in a cell viability assay.

NB6 = conditions: Homo sapiens, NB6;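 also: growth inhibition of NB6 cells, read out by a cell viability assay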
Description: SANGER: Inhibition of human NB6 cell growth in a cell viability assay.

TK-10 = conditions: Homo sapiens, TK-10;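 also: growth inhibition of TK-10 cells, read out in a cell viability assay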
Description: SANGER: Inhibition of human TK10 cell growth in a cell viability assay.

SJSA-1 = conditions: Homo sapiens, SJSA-1;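 also: growth inhibition of human SJSA-1 cells, read out through a cell viability measurement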
Description: SANGER: Inhibition of human SJSA-1 cell growth in a cell viability assay.

MZ2-MEL = conditions: Homo sapiens, MZ2-MEL;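 also: growth inhibition of MZ2-MEL cells read out with a cell viability assay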
Description: SANGER: Inhibition of human MZ2-MEL cell growth in a cell viability assay.

NCI-H1838 = conditions: Homo sapiens, NCI-H1838;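 also: growth inhibition of NCI-H1838 cells, determined with a cell viability readout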
Description: SANGER: Inhibition of human NCI-H1838 cell growth in a cell viability assay.

DJM-1 = conditions: Homo sapiens, DJM-1;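 also: growth inhibition of human DJM-1 cells, read out by a cell viability assay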
Description: SANGER: Inhibition of human DJM-1 cell growth in a cell viability assay.

U-266 = conditions: Homo sapiens, U-266
Description: SANGER: Inhibition of human U-266 cell growth in a cell viability assay.

BB49-HNC = conditions: Homo sapiens, BB49-HNC;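 also: cell viability assay read-out, reported as inhibition of BB49-HNC cell growth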
Description: SANGER: Inhibition of human BB49-HNC cell growth in a cell viability assay.

LB2518-MEL = conditions: Homo sapiens, LB2518-MEL;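 also: growth inhibition of human LB2518-MEL cells, measured with a cell viability assay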
Description: SANGER: Inhibition of human LB2518-MEL cell growth in a cell viability assay.

KG-1 = conditions: Homo sapiens, KG-1;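 also: growth inhibition of KG-1 cells, read out by a cell viability assay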
Description: SANGER: Inhibition of human KG-1 cell growth in a cell viability assay.

L-363 = conditions: Homo sapiens, L-363
Description: SANGER: Inhibition of human L-363 cell growth in a cell viability assay.

A3-KAW = conditions: Homo sapiens, A3-KAW;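 also: growth inhibition of human A3-KAW cells, read out with a cell viability assay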
Description: SANGER: Inhibition of human A3-KAW cell growth in a cell viability assay.

SF-539 = conditions: Homo sapiens, SF-539;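 also: Read-out is a cell viability assay, with IC50 reflecting inhibition of cell growth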
Description: SANGER: Inhibition of human SF539 cell growth in a cell viability assay.

OMC-1 = conditions: Homo sapiens, OMC-1;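 also: growth inhibition of the OMC-1 cell line, measured by a cell viability assay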
Description: SANGER: Inhibition of human OMC-1 cell growth in a cell viability assay.

MPP-89 = conditions: Homo sapiens, MPP-89;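 also: growth inhibition of human MPP-89 cells, read out with a cell viability assay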
Description: SANGER: Inhibition of human MPP-89 cell growth in a cell viability assay.

ES5 = conditions: Homo sapiens, ES5;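 also: growth inhibition of human ES5 cells, read out by a cell viability assay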
Description: SANGER: Inhibition of human ES5 cell growth in a cell viability assay.

LB771-HNC = conditions: Homo sapiens, LB771-HNC;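 also: growth inhibition of LB771-HNC human cells, read out with a cell viability assay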
Description: SANGER: Inhibition of human LB771-HNC cell growth in a cell viability assay.

LU-134-A = conditions: Homo sapiens, LU-134-A
Description: SANGER: Inhibition of human LU-134-A cell growth in a cell viability assay.

LS-411N = conditions: Homo sapiens, LS-411N
LNCaP-Clone-FGC = conditions: Homo sapiens, LNCaP-Clone-FGC
Description: SANGER: Inhibition of human LNCaP-Clone-FGC cell growth in a cell viability assay.

KNS-42 = conditions: Homo sapiens, KNS-42;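 also: growth inhibition of KNS-42 cells, read out with a cell viability assay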
Description: SANGER: Inhibition of human KNS-42 cell growth in a cell viability assay.

BB65-RCC = conditions: Homo sapiens, BB65-RCC;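 also: growth inhibition of the cell line, measured with a cell viability assay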
Description: SANGER: Inhibition of human BB65-RCC cell growth in a cell viability assay.

TE-5 = conditions: Homo sapiens, TE-5;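 also: inhibition of cell growth, read out by a cell viability assay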
Description: SANGER: Inhibition of human TE-5 cell growth in a cell viability assay.

LOX IMVI = conditions: Homo sapiens, LOX IMVI
Description: SANGER: Inhibition of human LOXIMVI cell growth in a cell viability assay.

KY821 = conditions: Homo sapiens, KY821;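 also: growth inhibition of human KY821 cells, read out by a cell viability assay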
Description: SANGER: Inhibition of human KY821 cell growth in a cell viability assay.

PSN1 = conditions: Homo sapiens, PSN1;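 also: suppression of growth of human PSN1 cells, read out by a cell viability assay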
Description: SANGER: Inhibition of human PSN1 cell growth in a cell viability assay.

RPMI-8866 = conditions: Homo sapiens, RPMI-8866
Description: SANGER: Inhibition of human RPMI-8866 cell growth in a cell viability assay.

EW-16 = conditions: Homo sapiens, EW-16;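 also: growth inhibition of human EW-16 cells, read out as cell viability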
Description: SANGER: Inhibition of human EW-16 cell growth in a cell viability assay.

SK-N-FI = conditions: Homo sapiens, SK-N-FI;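 also: cell viability assay measuring growth inhibition of human SK-N-FI cells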
Description: SANGER: Inhibition of human SK-N-FI cell growth in a cell viability assay.

C8166 = conditions: Homo sapiens, C8166;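 also: growth inhibition of human C8166 cells measured by a cell viability assay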
Description: SANGER: Inhibition of human C8166 cell growth in a cell viability assay.

K5 = conditions: Homo sapiens, K5
Description: SANGER: Inhibition of human K5 cell growth in a cell viability assay.

TE-9 = conditions: Homo sapiens, TE-9;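 also: cell growth inhibition, measured with a cell viability readout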
Description: SANGER: Inhibition of human TE-9 cell growth in a cell viability assay.

COLO-824 = conditions: Homo sapiens, COLO-824
Description: SANGER: Inhibition of human COLO-824 cell growth in a cell viability assay.

EOL1 = conditions: Homo sapiens, EOL1;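 also: growth inhibition of EoL-1 cells, read out by a cell viability assay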
Description: SANGER: Inhibition of human EoL-1-cell cell growth in a cell viability assay.

OVCAR-4 = conditions: Homo sapiens, OVCAR-4;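 also: growth inhibition of human OVCAR-4 cells, measured with a cell viability assay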
Description: SANGER: Inhibition of human OVCAR-4 cell growth in a cell viability assay.

ES7 = conditions: Homo sapiens, ES7;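 also: growth inhibition of cultured human ES7 cells, read out as cell viability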
Description: SANGER: Inhibition of human ES7 cell growth in a cell viability assay.

KM-H2 = conditions: Homo sapiens, KM-H2;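 also: growth inhibition of KM-H2 cells, read out by a cell viability assay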
Description: SANGER: Inhibition of human KM-H2 cell growth in a cell viability assay.

NCI-H23 = conditions: Homo sapiens, NCI-H23;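 also: cell viability assay measuring growth inhibition of NCI-H23 cells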
Description: SANGER: Inhibition of human NCI-H23 cell growth in a cell viability assay.

NCI-H82 = conditions: Homo sapiens, NCI-H82;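 also: growth inhibition of NCI-H82 cells, measured with a cell viability readout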
Description: SANGER: Inhibition of human NCI-H82 cell growth in a cell viability assay.

LXF-289 cell line = conditions: Homo sapiens, LXF-289
Description: SANGER: Inhibition of human LXF-289 cell growth in a cell viability assay.

KNS-81-FD = conditions: Homo sapiens, KNS-81-FD;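 also: growth inhibition of KNS-81-FD cells, read out with a cell viability assay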
Description: SANGER: Inhibition of human KNS-81-FD cell growth in a cell viability assay.

Work on `CCN(CC)CCCCNc1ncc2cc(-c3cc(OC)cc(OC)c3)c(NC(=O)NC(C)(C)C)nc2n1` [PD-173074] yielded an IC50 (IST-MEL1) of over 2 µM, an IC50 (Mo) of over 2 µM and an IC50 (IST-MES1) of over 2 µM. For the same compound, the IC50 (MHH-NB-11) was over 2 µM, the IC50 (SW872) was over 2 µM and the IC50 (GB-1) was over 2 µM. The IC50 (NB6) was over 2 µM, the IC50 (TK-10) was over 2 µM and the IC50 (SJSA-1) was over 2 µM. The IC50 (MZ2-MEL) was over 2 µM, the IC50 (NCI-H1838) was over 2 µM and the IC50 (DJM-1) was over 2 µM. It also gave an IC50 (U-266) of over 2 µM, an IC50 (BB49-HNC) of over 2 µM and an IC50 (LB2518-MEL) of over 2 µM. For the same compound, the IC50 (KG-1) was 0.0513 µM, the IC50 (L-363) was over 2 µM and the IC50 (A3-KAW) was over 2 µM. The IC50 (SF-539) was over 2 µM, the IC50 (OMC-1) was over 2 µM and the IC50 (MPP-89) was over 2 µM. It also gave an IC50 (ES5) of over 2 µM, an IC50 (LB771-HNC) of over 2 µM and an IC50 (LU-134-A) of over 2 µM. The IC50 (LS-411N) was over 2 µM, the IC50 (LNCaP-Clone-FGC) was over 2 µM and the IC50 (KNS-42) was over 2 µM. For the same compound, the IC50 (BB65-RCC) was over 2 µM, the IC50 (TE-5) was over 2 µM and the IC50 (LOX IMVI) was over 2 µM. It also gave an IC50 (KY821) of over 2 µM, an IC50 (PSN1) of over 2 µM and an IC50 (RPMI-8866) of over 2 µM. The IC50 (EW-16) was over 2 µM, the IC50 (SK-N-FI) was over 2 µM and the IC50 (C8166) was over 2 µM. The IC50 (K5) was over 2 µM, the IC50 (TE-9) was over 2 µM and the IC50 (COLO-824) was over 2 µM. For the same compound, the IC50 (EOL1) was 0.33 µM, the IC50 (OVCAR-4) was over 2 µM and the IC50 (ES7) was over 2 µM. For the same compound, the IC50 (KM-H2) was over 2 µM, the IC50 (NCI-H23) was over 2 µM and the IC50 (NCI-H82) was over 2 µM. The IC50 (LXF-289 cell line) was over 2 µM and the IC50 (KNS-81-FD) was over 2 µM.

`COc1cc2c(Nc3ccc(NC(=O)c4ccccc4)cc3)ncnc2cc1OCCCN1CCOCC1` showed an IC50 (IST-MEL1) of over 4 µM, an IC50 (Mo) of over 4 µM and an IC50 (IST-MES1) of over 4 µM. The IC50 (MHH-NB-11) was over 4 µM, the IC50 (SW872) was over 4 µM and the IC50 (GB-1) was over 4 µM. The IC50 (NB6) was over 4 µM, the IC50 (TK-10) was over 4 µM and the IC50 (SJSA-1) was over 4 µM. The IC50 (MZ2-MEL) was over 4 µM, the IC50 (NCI-H1838) was over 4 µM and the IC50 (DJM-1) was over 4 µM. It also gave an IC50 (U-266) of 2.84 µM, an IC50 (BB49-HNC) of over 4 µM and an IC50 (LB2518-MEL) of over 4 µM. The IC50 (KG-1) was 3.2 µM, the IC50 (L-363) was 1.95 µM and the IC50 (A3-KAW) was over 4 µM. The IC50 (SF-539) was over 4 µM, the IC50 (OMC-1) was over 4 µM and the IC50 (MPP-89) was over 4 µM. For the same compound, the IC50 (ES5) was 1 µM, the IC50 (LB771-HNC) was over 4 µM and the IC50 (LU-134-A) was over 4 µM. For the same compound, the IC50 (LS-411N) was over 4 µM, the IC50 (LNCaP-Clone-FGC) was over 4 µM and the IC50 (KNS-42) was over 4 µM. The IC50 (BB65-RCC) was over 4 µM, the IC50 (TE-5) was over 4 µM and the IC50 (LOX IMVI) was over 4 µM. It also gave an IC50 (KY821) of over 4 µM, an IC50 (PSN1) of over 4 µM and an IC50 (RPMI-8866) of over 4 µM. It also gave an IC50 (EW-16) of 3.23 µM, an IC50 (SK-N-FI) of over 4 µM and an IC50 (C8166) of over 4 µM. It also gave an IC50 (K5) of over 4 µM, an IC50 (TE-9) of over 4 µM and an IC50 (COLO-824) of over 4 µM. It also gave an IC50 (EOL1) of 0.187 µM, an IC50 (OVCAR-4) of over 4 µM and an IC50 (ES7) of over 4 µM. The IC50 (KM-H2) was over 4 µM, the IC50 (NCI-H23) was over 4 µM and the IC50 (NCI-H82) was over 4 µM. It also gave an IC50 (LXF-289 cell line) of 2.54 µM and an IC50 (KNS-81-FD) of over 4 µM.
